Measured values: ChEMBL document CHEMBL1201862, “PubChem BioAssay data set” (2004)
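Test compounds were applied to cells in 96-well plates for 48 hours at 5 doses. GI50 = concentration required for 50% inhibition of growth.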 Calls of active or inactive are those of the source. Rule as the data show it: active = GI50 up to about 1.1 µM and inactive = higher.

Tests used:
Assay in all cases: NCI tumour cell line growth inhibition, 48 h
LXFL 529 = test system: LXFL 529
DMS-114 = test system: DMS-114
M19-MEL = test system: M19-MEL
XF498 = test system: XF498
DLD-1 = test system: DLD-1
DMS-273 = test system: DMS-273
KM-20L2 = test system: KM-20L2
HOP-18 = test system: HOP-18
RXF 631 = test system: RXF 631

Compound | GI50 (LXFL 529) | GI50 (DMS-114) | GI50 (M19-MEL) | GI50 (XF498) | GI50 (DLD-1) | GI50 (DMS-273) | GI50 (KM-20L2) | GI50 (HOP-18) | GI50 (RXF 631)
O=C(Nc1cccc(C(F)(F)F)c1)C(=O)C(C(=O)c1ccc2ccccc2c1)C1OC(=O)c2ccccc21 (stereo not given) | 4.82 µM (inactive) | 6.89 µM (inactive) | 8.51 µM (inactive) | 0.887 µM (active) | 6.35 µM (inactive) | 6.3 µM (inactive) | 15.8 µM (inactive) |  | 
CC(C)(CN1CCCCC1)C(=O)CC(SCCS(=O)(=O)O)c1ccc(Br)cc1 (stereo not given) | 1.24 µM (inactive) | 1.75 µM (inactive) | 1.66 µM (inactive) | 0.562 µM (active) | 1.67 µM (inactive) | 1.65 µM (inactive) | 1.58 µM (inactive) | 0.832 µM (active) | 
CN(C)CCNC(=O)c1cccc2ccc(-c3ccc(O)cc3)nc12 |  | 2.08 µM (inactive) | 1.9 µM (inactive) |  | 2.47 µM (inactive) | 0.743 µM (active) | 6.68 µM (inactive) | 2.81 µM (inactive) | 
FC(F)(F)c1cccc(/C=N/C23CC4CC(CC(C4)C2)C3)c1 |  | > 100 µM (inactive) | 27.5 µM (inactive) | > 100 µM (inactive) |  | > 100 µM (inactive) | > 100 µM (inactive) |  | 
CCOC(=O)c1sc2c(sc(=O)n2-c2ccccc2)c1O | > 100 µM (inactive) | 98.9 µM (inactive) | > 100 µM (inactive) | > 100 µM (inactive) | 46.3 µM (inactive) | 29.4 µM (inactive) | > 100 µM (inactive) | > 100 µM (inactive) | 58.6 µM (inactive)
OCC(O)C(OC1OC(CO)C(O)C(O)C1O)c1nn(-c2ccccc2)c2nc3cc(Cl)ccc3nc12 (stereo not given) | > 100 µM (inactive) | > 100 µM (inactive) | > 100 µM (inactive) | > 100 µM (inactive) | > 100 µM (inactive) |  | > 100 µM (inactive) |  | 
C[C@@H]1[C@@H]2[C@@H](C=C3C4CCC5Cc6nc7c(nc6C[C@@]5(C)C4C[C@H](O)[C@]32CO)CC2CCC3C4=C[C@H]5O[C@@]6(OC(C)(CO)C[C@@H]6O)[C@H](C)[C@@]5(O)[C@]4(C)[C@@H](O)CC3[C@]2(C)C7)O[C@]12CCC(C)(C)O2 (stereo not given in full) | 0.0118 µM (active) |  | 0.966 µM (active) | 0.00507 µM (active) | 0.822 µM (active) | 0.000826 µM (active) | 0.0233 µM (active) | 0.401 µM (active) | 
CC(=O)Nc1ccc(/C=C/C(=O)c2sc(C(N)=S)nc2C)cc1 |  | > 100 µM (inactive) | > 100 µM (inactive) |  | > 100 µM (inactive) | > 100 µM (inactive) | > 100 µM (inactive) | > 100 µM (inactive) | 
CC(=O)O[C@H]1C(N(C)C(=O)c2ccccc2)CC[C@]2(C)C3CC[C@@]4(C)C(CC(O)[C@@H]4C(C)N(C)C)[C@@H]3CCC12 (stereo not given in full) | > 100 µM (inactive) | > 100 µM (inactive) | > 100 µM (inactive) | > 100 µM (inactive) | > 100 µM (inactive) | > 100 µM (inactive) | > 100 µM (inactive) | > 100 µM (inactive) | 
CCN(CC)CCn1c2ccccc2c(=O)c2c(O)ccc(O)c21 | 19.9 µM (inactive) | 18.5 µM (inactive) |  | 21.6 µM (inactive) |  | 99.1 µM (inactive) | > 100 µM (inactive) |  | > 45.7 µM (inactive)
O=C1/C(=C/c2ccc3c(c2)OCO3)SC2C=Nc3ccccc3N12 (stereo not given) | > 100 µM (inactive) | 93.5 µM (inactive) | > 100 µM (inactive) | > 100 µM (inactive) | > 100 µM (inactive) | > 100 µM (inactive) | > 100 µM (inactive) | > 100 µM (inactive) | > 100 µM (inactive)
C=CCNC(=O)NCCCC(NC(C)=O)C(=O)NCc1ccccc1 (stereo not given) | > 100 µM (inactive) |  | > 100 µM (inactive) | > 100 µM (inactive) |  | > 100 µM (inactive) | > 100 µM (inactive) | > 100 µM (inactive) | > 100 µM (inactive)
O=C(O)[C@@H](NS(=O)(=O)c1ccc2ccccc2c1)c1ccccc1 | > 100 µM (inactive) |  | > 100 µM (inactive) | 75.5 µM (inactive) | > 100 µM (inactive) | > 100 µM (inactive) | > 100 µM (inactive) | > 100 µM (inactive) | > 100 µM (inactive)
O=c1oc(=O)c2oc3ccccc3oc1=2 | > 100 µM (inactive) | > 100 µM (inactive) | > 100 µM (inactive) | > 100 µM (inactive) | > 100 µM (inactive) | > 100 µM (inactive) | > 100 µM (inactive) | > 100 µM (inactive) | 
